Source: patent US20090233930A9, “Novel 2-Amino-Imidazole-4-One Compounds and Their Use in the Manufacture of a Medicament to Be Used in the Treatment of Cognitive Impairment, Alzheimer's Disease, Neurodegeneration and Dementia” (ASTRAZENECA AB, priority 2005, published 2009)
pIC50: −log10 of the molar value. Structures can show the parent of a compound that is named as a salt.

Target: T1, human β-Secretase (Homo sapiens, UniProt P56817)
T1 construct: The soluble part of the human β-Secretase (AA 1-AA 460) was cloned; made in house
Assay: TR-FRET assay
Assay type: biochemical
Conditions: sBACE truncated form, substrate (Europium)CEVNLDAEFK(Qsy7) 100 nM, pH 4.5
Description: The enzyme used in the IGEN Cleavage-, Fluorescent-, TR-FRET- and the BiaCore assay is described as follows:
The soluble part of the human β-Secretase (AA 1-AA 460) was cloned into the ASP2-Fc10-1-IRES-GFP-neoK mammalian expression vector. The gene was fused to the Fc domain of IgG1 (affinity tag) and stably cloned into HEK 293 cells. Purified sBACE-Fc is stored in Tris buffer, pH 9.2 and has a purity of 95%.
Dilute the enzyme (truncated form) to 6 μg/mL (stock 1.3 mg/mL) and the substrate (Europium)CEVNLDAEFK(Qsy7) to 200 nM (stock 60 μM) in reaction buffer (NaAcetate, chaps, triton x-100, EDTA pH4.5). The Biomek FX is used for all liquid handling and the enzyme and substrate solutions are kept on ice until they are placed in Biomek FX. Enzyme (9 μl) is added to the plate then 1 μl of compound in dimethylsulphoxide is added, mixed and pre-incubated for 10 minutes. Substrate (10 μl) is then added, mixed and the reaction proceeds in the dark for 15 minutes at room temperature. The reaction is stopped with the addition of Stop solution (7 μl, NaAcetate pH 9). The fluorescence of the product is measured on a Victor II plate reader with an excitation wavelength of 340 nm and an emission wavelength of 615 nm. The assay is done in a Costar 384 well round bottom, low volume, non-binding surface (Corning #3676). […]

T1 sequence (P56817 22-460): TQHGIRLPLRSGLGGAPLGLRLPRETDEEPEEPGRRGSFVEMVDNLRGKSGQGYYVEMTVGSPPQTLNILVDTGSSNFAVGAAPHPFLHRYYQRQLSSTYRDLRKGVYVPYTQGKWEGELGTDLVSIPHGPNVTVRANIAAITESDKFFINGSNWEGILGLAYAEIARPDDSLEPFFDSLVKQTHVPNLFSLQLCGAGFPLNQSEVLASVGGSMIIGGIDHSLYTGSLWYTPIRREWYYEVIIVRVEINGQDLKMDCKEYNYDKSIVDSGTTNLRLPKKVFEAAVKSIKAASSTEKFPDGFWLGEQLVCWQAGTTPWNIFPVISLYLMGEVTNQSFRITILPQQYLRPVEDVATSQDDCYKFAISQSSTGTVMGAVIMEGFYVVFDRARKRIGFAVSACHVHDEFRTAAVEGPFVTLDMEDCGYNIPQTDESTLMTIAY

SMILES	pIC50
COc1cccc(-c2cccc(C3(c4cccc(OS(=O)(=O)C(F)(F)F)c4)N=C(N)N(C)C3=O)c2)c1 (centres unmarked) [Example 45, 3-[2-Amino-4-(3′-methoxybiphenyl-3-yl)-1-methyl-5-oxo-4,5-dihydro-1H-imidazol-4-yl]phenyl trifluoromethanesulfonate hydrochloride]	6.59
COc1ccc(OS(=O)(=O)C(F)(F)F)c(-c2cccc(C3(c4ccccc4)N=C(N)N(C)C3=O)c2)c1 (centres unmarked) [Example 26, 3′-(2-Amino-1-methyl-5-oxo-4-phenyl-4,5-dihydro-1H-imidazol-4-yl)-5-methoxybiphenyl-2-yl trifluoromethanesulfonate hydrochloride]	6.13
